Source: paper PMC7718874, “Coupling of H3K27me3 recognition with transcriptional repression through the BAH-PHD-CPL2 complex in Arabidopsis” (Nature Communications, 2020)

Columns and labels:
[1] = tested on: nascent RNA (Pol II transcription rate) of AGO5, SUC5 and downstream nontarget genes; assay: Nuclear run-on assay with or without FLA (flavopiridol) treatment; design: species or system Arabidopsis; conditions: for NRO-qPCR, AT1G71900 / NRO-qPCR, AT2G27900 / NRO-qPCR, FT / NRO-qPCR, SUC5 / NRO-qPCR, AGO5: Figure 7c
Procedure: FLA treatment assay was performed as previous report. In brief, 2-week-old seedlings were collected and incubated with 200 μM FLA or mock solution (DMSO) overnight. The treated seedlings were subjected to total RNA extraction.
Nuclear run-on assay was performed as previous report with minor changes. In brief, after nuclei isolation with buffer (0.25 M sucrose, 15 mM PIPES pH 6.8, 5 mM MgCl2, 60 mM KCl, 15 mM NaCl, 1 mM CaCl2, 0.9% Triton X-100, and protease inhibitor cocktail), the nuclear pellet was resuspended with nuclei storage buffer (50 mM Tris-HCl pH 8, 0.1 mM EDTA, 5 mM MgCl2 and 40% glycerol) and mixed with transcription buffer (10 mM Tris-HCl, pH 8, 2.5 mM MgCl2, 150 mM KCl, 2 mM DTT, 80 units RNase inhibitor, 0.5 mM BrUTP, 1 mM ATP, 1 mM GTP, 1 mM CTP, 0.5 mM UTP, and 0.2% sarkosyl). After incubation at 30 °C for 15 min, the run-on reaction was stopped by adding Trizol reagent (Thermo). The nuclear RNAs were extracted and treated with DNase. The DNA-free RNAs were then inoculated with 2 μg anti-BrdU antibody (abcam) at room temperature for 30 min and precipitated by Dynabeads (Thermo). After two times washing, RNAs were extracted using Trizol reagent (Thermo). cDNAs were synthesized using SuperScript IV Reverse Transcriptase (Thermo) and subjected to qPCR analysis.

CDK kinases = conditions: cited from earlier work

With CN1CC[C@H](c2c(O)cc(O)c3c(=O)cc(-c4ccccc4Cl)oc23)[C@H](O)C1 [FLA, flavopiridol] as the molecule, how does the “nascent RNA levels upon FLA treatment (in words)” value ([1]; 200 μM FLA overnight, 2-week-old seedlings, AGO5, SUC5 and downstream nontarget genes, BrUTP run-on, qPCR, normalized to 18 S rRNA, three biological repeats) read?
The value was “greatly reduced”.

And the “difference of nascent RNA levels between genotypes upon FLA treatment (in words)” value ([1]; 200 μM FLA overnight, Fig. 7c, three biological repeats)?
The value was “no obvious changes were observed between different genotypes”.

And the “NRO-qPCR, AT1G71900” value ([1]; Col-0 FLA, Repeat 1)?
Its value is 2e-5.

And the “NRO-qPCR, AT2G27900” value ([1]; Col-0 FLA, Repeat 1)?
The value was 4.5e-5.

And the “NRO-qPCR, FT” value ([1]; Col-0 FLA, Repeat 1)?
Its value is 2e-6.

What about the “NRO-qPCR, SUC5” value ([1]; Col-0 FLA, Repeat 1) of the same molecule?
The value was 2e-6.

And the “NRO-qPCR, AT1G71900” value ([1]; Col-0 FLA, Repeat 2)?
Its value is 1.6e-5.

And the “NRO-qPCR, AT2G27900” value ([1]; Col-0 FLA, Repeat 2)?
Its value is 1.8e-5.

And the “NRO-qPCR, FT” value ([1]; Col-0 FLA, Repeat 2)?
The value was 2e-6.

What about the “NRO-qPCR, SUC5” value ([1]; Col-0 FLA, Repeat 2) of the same molecule?
Its value is 1.2e-5.

And the “NRO-qPCR, AT1G71900” value ([1]; Col-0 FLA, Repeat 3)?
Its value is 2e-6.

And the “NRO-qPCR, AT2G27900” value ([1]; Col-0 FLA, Repeat 3)?
The value was 4.7e-5.

What about the “NRO-qPCR, SUC5” value ([1]; Col-0 FLA, Repeat 3) of the same molecule?
Its value is 5e-6.

And the “NRO-qPCR, AGO5” value ([1]; aipp2/paipp2 FLA, Repeat 1)?
The value was 1.35e-7.

And the “NRO-qPCR, AT1G71900” value ([1]; aipp2/paipp2 FLA, Repeat 1)?
Its value is 1e-5.

What about the “NRO-qPCR, AT2G27900” value ([1]; aipp2/paipp2 FLA, Repeat 1) of the same molecule?
Its value is 3.1e-5.

And the “NRO-qPCR, FT” value ([1]; aipp2/paipp2 FLA, Repeat 1)?
The value was 5e-6.

And the “NRO-qPCR, SUC5” value ([1]; aipp2/paipp2 FLA, Repeat 1)?
The value was 1.1e-5.

What about the “NRO-qPCR, AT1G71900” value ([1]; aipp2/paipp2 FLA, Repeat 2) of the same molecule?
Its value is 1.3e-5.

What about the “NRO-qPCR, AT2G27900” value ([1]; aipp2/paipp2 FLA, Repeat 2) of the same molecule?
Its value is 2.6e-5.

And the “NRO-qPCR, FT” value ([1]; aipp2/paipp2 FLA, Repeat 2)?
Its value is 4e-6.

What about the “NRO-qPCR, SUC5” value ([1]; aipp2/paipp2 FLA, Repeat 2) of the same molecule?
The value was 1.2e-5.

And the “NRO-qPCR, AGO5” value ([1]; aipp2/paipp2 FLA, Repeat 3)?
The value was 2.05e-6.

What about the “NRO-qPCR, AT2G27900” value ([1]; aipp2/paipp2 FLA, Repeat 3) of the same molecule?
The value was 2.3e-5.

What about the “NRO-qPCR, AT1G71900” value ([1]; aipp3 FLA, Repeat 1) of the same molecule?
Its value is 1.1e-5.

And the “NRO-qPCR, AT2G27900” value ([1]; aipp3 FLA, Repeat 1)?
The value was 1.5e-5.

And the “NRO-qPCR, FT” value ([1]; aipp3 FLA, Repeat 1)?
Its value is 3e-6.

What about the “NRO-qPCR, SUC5” value ([1]; aipp3 FLA, Repeat 1) of the same molecule?
The value was 2e-6.

What about the “NRO-qPCR, AT1G71900” value ([1]; aipp3 FLA, Repeat 2) of the same molecule?
The value was 1e-5.

And the “NRO-qPCR, AT2G27900” value ([1]; aipp3 FLA, Repeat 2)?
Its value is 5e-5.

What about the “NRO-qPCR, FT” value ([1]; aipp3 FLA, Repeat 2) of the same molecule?
The value was 1e-6.

What about the “NRO-qPCR, SUC5” value ([1]; aipp3 FLA, Repeat 2) of the same molecule?
Its value is 2e-6.

What about the “NRO-qPCR, AT1G71900” value ([1]; aipp3 FLA, Repeat 3) of the same molecule?
Its value is 1e-5.

And the “NRO-qPCR, AT2G27900” value ([1]; aipp3 FLA, Repeat 3)?
Its value is 7.2e-5.

And the “NRO-qPCR, SUC5” value ([1]; aipp3 FLA, Repeat 3)?
Its value is 1e-6.

And the “NRO-qPCR, AGO5” value ([1]; cpl2 FLA, Repeat 1)?
Its value is 1.31e-6.

And the “NRO-qPCR, AT1G71900” value ([1]; cpl2 FLA, Repeat 1)?
Its value is 2e-6.

What about the “NRO-qPCR, AT2G27900” value ([1]; cpl2 FLA, Repeat 1) of the same molecule?
The value was 1.6e-5.

What about the “NRO-qPCR, FT” value ([1]; cpl2 FLA, Repeat 1) of the same molecule?
Its value is 1e-6.

And the “NRO-qPCR, SUC5” value ([1]; cpl2 FLA, Repeat 1)?
Its value is 1e-5.

What about the “NRO-qPCR, AGO5” value ([1]; cpl2 FLA, Repeat 2) of the same molecule?
Its value is 5.33e-7.

What about the “NRO-qPCR, AT1G71900” value ([1]; cpl2 FLA, Repeat 2) of the same molecule?
The value was 2e-6.

What about the “NRO-qPCR, AT2G27900” value ([1]; cpl2 FLA, Repeat 2) of the same molecule?
Its value is 2.7e-5.

What about the “NRO-qPCR, FT” value ([1]; cpl2 FLA, Repeat 2) of the same molecule?
The value was 2e-6.

And the “NRO-qPCR, SUC5” value ([1]; cpl2 FLA, Repeat 2)?
Its value is 7e-6.

And the “NRO-qPCR, AT2G27900” value ([1]; cpl2 FLA, Repeat 3)?
The value was 1.1e-5.

And the “NRO-qPCR, FT” value ([1]; cpl2 FLA, Repeat 3)?
The value was 1e-6.

And the “NRO-qPCR, SUC5” value ([1]; cpl2 FLA, Repeat 3)?
The value was 8e-6.

And the “reduction of Pol II CTD phosphorylation (in words)” value (CDK kinases)?
The value was “reduce the phosphorylation of Pol II CTD by inhibiting the activity of CDK kinases”.
